From the supplement of paper PMC13380429

Columns and labels:
Conditions in all cases: 72 h
Caco-2 [1] = assay: cell viability relative to DMSO; higher = less toxic
Calu-3 [2] = assay: as above
HepG2 [3] = assay: as above
U2OS [4] = assay: as above
Vero E6 [5] = assay: as above
HepG2 [6] = assay: relative viability EC50 (midpoint between 100% and the lowest measured viability); higher = less toxic
Vero E6 [7] = assay: as above
Caco-2 [8] = assay: drug sensitivity score (DSS) for viability; higher = more toxic; extreme values may be limits of the assay
Calu-3 [9] = assay: as above
HepG2 [10] = assay: as above
U2OS [11] = assay: as above
Vero E6 [12] = assay: as above
Caco-2 [13] = assay: relative viability EC50 (midpoint between 100% and the lowest measured viability); higher = less toxic
U2OS [14] = assay: as above
Calu-3 [15] = assay: as above

Row | SMILES | cell viability (Caco-2 [1]; 1 nM) | cell viability (Caco-2 [1]; 10 nM) | cell viability (Caco-2 [1]; 100 nM) | cell viability (Caco-2 [1]; 1000 nM) | cell viability (Caco-2 [1]; 10000 nM) | cell viability (Calu-3 [2]; 1 nM) | cell viability (Calu-3 [2]; 10 nM) | cell viability (Calu-3 [2]; 100 nM) | cell viability (Calu-3 [2]; 1000 nM) | cell viability (Calu-3 [2]; 10000 nM) | cell viability (HepG2 [3]; 1 nM) | cell viability (HepG2 [3]; 10 nM) | cell viability (HepG2 [3]; 100 nM) | cell viability (HepG2 [3]; 1000 nM) | cell viability (HepG2 [3]; 10000 nM) | cell viability (U2OS [4]; 1 nM) | cell viability (U2OS [4]; 10 nM) | cell viability (U2OS [4]; 100 nM) | cell viability (U2OS [4]; 1000 nM) | cell viability (U2OS [4]; 10000 nM) | cell viability (Vero E6 [5]; 1 nM) | cell viability (Vero E6 [5]; 10 nM) | cell viability (Vero E6 [5]; 100 nM) | cell viability (Vero E6 [5]; 1000 nM) | cell viability (Vero E6 [5]; 10000 nM) | relative viability EC50 (HepG2 [6]) | relative viability EC50 (Vero E6 [7]) | drug sensitivity score (Caco-2 [8]) | drug sensitivity score (Calu-3 [9]) | drug sensitivity score (HepG2 [10]) | drug sensitivity score (U2OS [11]) | drug sensitivity score (Vero E6 [12]) | relative viability EC50 (Caco-2 [13]) | relative viability EC50 (U2OS [14]) | relative viability EC50 (Calu-3 [15])
1 | COc1cc(C(=O)N2CCC(N3CCN(C)CC3)CC2)ccc1Nc1ncc2c(n1)N(C)c1ccccc1C(=O)N2C [LRRK2-IN-1] | 96% | 87.2% | 98.8% | 91.7% | 67.8% | 102% | 89.2% | 102% | 88.1% | 52.2% | 99.4% | 99.4% | 98.8% | 103% | 31.6% | 101% | 95.9% | 98.5% | 90.6% | 50.1% | 99.5% | 100% | 94% | 94.3% | 13.5% | 3.42 µM | 2.64 µM | 2.7 | 4.4 | 3.5 | 4.2 | 5.7 | – | – | –
2 | CCN1CCCC1CNC(=O)c1cc(S(N)(=O)=O)ccc1OC (configuration not stated) [sulpiride] | – | – | – | – | – | – | – | – | – | – | – | – | – | – | – | – | – | – | – | – | – | – | – | – | – | – | – | – | 0 | 0 | 0 | 0 | – | – | –
3 | CC(C)c1ccccc1S(=O)(=O)c1cc(N)c2ncccc2c1[N+](=O)[O-] | 98.7% | 102% | 99.1% | 97.3% | 89.8% | – | – | – | – | – | 100% | 95.8% | 100% | 89.9% | 110% | 99.7% | 102% | 96.3% | 98.5% | 93.7% | 98% | 103% | 107% | 102% | 100% | > 10 µM | > 10 µM | 0 | – | 0 | 0 | 0 | > 10 µM | > 10 µM | –
4 | Cc1c(Cn2c(C)nc3c(C(=O)O)cc(N4CCOCC4)cc32)cccc1C(F)(F)F | 102% | 97.3% | 91.2% | 93.1% | 84.9% | 110% | 101% | 97% | 94.4% | 86% | – | – | – | – | – | 95.7% | 104% | 96.2% | 99% | 91.3% | 97.2% | 101% | 93.1% | 84.4% | 58.9% | – | – | 0.5 | 0.2 | – | 0 | 3.6 | > 10 µM | > 10 µM | > 10 µM
5 | O=C(NO)c1ccc2[nH]c(=O)c(CCCc3ccccc3)nc2c1 [TCS-2210] | 94.2% | 95.8% | 101% | 94.8% | 96.4% | 136% | 93.7% | 98% | 78.4% | 62% | 108% | 96.5% | 100% | 94.7% | 39.9% | 99.1% | 96.3% | 102% | 94.4% | 66.8% | 87.5% | 96.1% | 89% | 98.4% | 101% | 2.44 µM | > 10 µM | 0 | 4.3 | 4.1 | 2.4 | 0 | > 10 µM | – | –
6 | CC(C)(C)[C@H]1CC[C@H](CC2=C(O)C(=O)c3ccccc3C2=O)CC1 [buparvaquone] | 94.1% | 101% | 102% | 111% | 81.3% | 91.4% | 104% | 95% | 96.6% | 94% | 99.5% | 104% | 98.9% | 93.9% | 71.1% | 97.4% | 100% | 99.3% | 102% | 97.6% | 102% | 101% | 105% | 82.7% | 65.5% | – | – | 0.3 | 0 | 2.2 | 0 | 3.8 | > 10 µM | > 10 µM | > 10 µM
7 | O=C(CCCCCCC(=O)NO)NO [SBHA] | 95.6% | 99.4% | 109% | 98.1% | 86.7% | 104% | 95.9% | 86.4% | 90.1% | 72.6% | 104% | 96.9% | 105% | 94.4% | 48.7% | 104% | 96.3% | 100% | 98.2% | 81.7% | 106% | 99.8% | 99.6% | 102% | 80.4% | 2.27 µM | > 10 µM | 0.2 | 2.4 | 3.6 | 0.7 | 0.4 | > 10 µM | > 10 µM | –
8 | CCCOc1ccc2[nH]c(NC(=O)OC)nc2c1 [oxibendazole] | 94.8% | 93.7% | 107% | 96.4% | 63.1% | 102% | 97.2% | 97.1% | 97.8% | 63% | 91.1% | 95.8% | 94.6% | 103% | 54.4% | 101% | 95.2% | 101% | 102% | 47.5% | 95.1% | 96.3% | 90.2% | 63.8% | 41.9% | – | 0.54 µM | 2.4 | 2.1 | 2.1 | 2.6 | 7.9 | – | 3.4 µM | –
9 | C=C[C@H]1CN2CC[C@H]1C[C@@H]2[C@@H](O)c1ccnc2ccc(OC)cc12 [quinidine] | – | – | – | – | – | – | – | – | – | – | – | – | – | – | – | – | – | – | – | – | – | – | – | – | – | – | – | – | 0 | 0 | 0 | 0 | – | – | –
10 | CCn1cc(-c2ccnc3[nH]c(-c4cccc(CN(C)C)c4)cc23)c(-c2ccc(NC(=O)N(C)C)cc2)n1 | 96.3% | 95.7% | 98% | 93.1% | 56.2% | 97.8% | 110% | 81.9% | 97.7% | 81.9% | 106% | 105% | 77.8% | 72.3% | 20.1% | – | – | – | – | – | 103% | 104% | 98.5% | 82% | 63.5% | 1.19 µM | – | 3.4 | 0.6 | 8.1 | – | 3.8 | – | – | > 10 µM
11 | CC(=O)O[C@]1(C(C)=O)CC[C@H]2[C@@H]3C=CC4=CC(=O)CC[C@]4(C)[C@H]3CC[C@@]21C [6,7-dehydro-17-acetoxy-progesterone] | 95.6% | 97.5% | 93.7% | 92.8% | 92.6% | – | – | – | – | – | 102% | 103% | 105% | 105% | 98% | 96.4% | 99.6% | 97.3% | 101% | 94.8% | 106% | 99.5% | 104% | 98.1% | 98.2% | > 10 µM | > 10 µM | 0 | – | 0 | 0 | 0 | > 10 µM | > 10 µM | –
12 | COc1ccccc1N1CCN(CCCCNC(=O)c2ccc3ccccc3c2)CC1 [BP-897] | – | – | – | – | – | – | – | – | – | – | – | – | – | – | – | – | – | – | – | – | – | – | – | – | – | – | – | – | 0.8 | 0 | 0 | 0 | – | – | –
13 | CC1=NN(c2ccc(C)c(C)c2)C(=O)/C1=N\Nc1cccc(-c2cccc(C(=O)O)c2)c1O [eltrombopag] | 93.5% | 89.8% | 93.5% | 97.9% | 82.1% | 114% | 102% | 100% | 96.7% | 74.3% | 97.4% | 92% | 105% | 96.8% | 44.5% | 95.6% | 102% | 100% | 101% | 71.1% | 97.6% | 93.5% | 91.9% | 90.7% | 82.9% | 2.71 µM | > 10 µM | 0 | 1.5 | 3.4 | 1.2 | 0.8 | > 10 µM | – | –
14 | NCC(O)(CS(=O)(=O)O)c1ccc(Cl)cc1 (configuration not stated) [2-hydroxysaclofen] | 98.4% | 96.2% | 91.4% | 98.6% | 96.3% | – | – | – | – | – | 101% | 98.5% | 89.4% | 90.3% | 98.8% | 104% | 94.8% | 94.9% | 103% | 97.4% | 100% | 98.1% | 102% | 97.2% | 97.5% | > 10 µM | > 10 µM | 0 | – | 0.3 | 0 | 0 | > 10 µM | > 10 µM | –
15 | C[C@@H](N)c1ccc(C(=O)Nc2ccnc3[nH]ccc23)cc1 | 95.8% | 101% | 110% | 105% | 91.6% | – | – | – | – | – | 93.7% | 94.4% | 105% | 89.8% | 68.4% | 99.3% | 96.8% | 99% | 98.2% | 75% | 99.1% | 98.5% | 96.6% | 93% | 86.5% | – | > 10 µM | 0 | – | 2.8 | 1.2 | 0.2 | > 10 µM | – | –
16 | NS(=O)(=O)OC[C@@H]1C[C@@H](n2ccc3c(N[C@H]4CCc5ccccc54)ncnc32)C[C@@H]1O [pevonedistat] | 95.3% | 106% | 87.7% | 92.4% | 60.1% | 94.9% | 97.2% | 104% | 97.4% | 71.8% | 96.3% | 111% | 77.6% | 58.2% | 32.7% | 98.6% | 98.6% | 101% | 71% | 14.9% | 96.9% | 107% | 103% | 104% | 24.3% | 0.401 µM | 3.45 µM | 3.1 | 1.6 | 10.3 | 8.8 | 3.9 | – | 1.3 µM | –
17 | CNCc1ccc(-c2[nH]c3cc(F)cc4c3c2CCNC4=O)cc1 [rucaparib] | 94.7% | 91.2% | 97.4% | 94.5% | 89.6% | – | – | – | – | – | 98.8% | 109% | 95.5% | 92% | 78.7% | 101% | 93.4% | 98.7% | 102% | 106% | 96.4% | 99.9% | 96.1% | 93.7% | 93.3% | > 10 µM | > 10 µM | 0 | – | 1.1 | 0 | 0 | > 10 µM | > 10 µM | –
18 | O=c1ccn([C@@H]2O[C@H](CO)[C@@H](O)[C@H]2O)c(=O)[nH]1 [uridine] | – | – | – | – | – | – | – | – | – | – | – | – | – | – | – | – | – | – | – | – | – | – | – | – | – | – | – | – | 0 | 0.8 | 0 | 0 | – | – | –
